Measured values reported in patent publication US7998681B2, “Diagnosis and therapy of antibody-mediated inflammatory auto-immune disorders” (Los Angeles Biomedical Research Institute at Harbor-UCLA …, priority 2000, dated 2011).

Legend:
RANTES = RANTES ELISA of medium from treated fibroblasts, GD donors; assay type: cell-based, human; conditions: GD, limit of detection 15 pg/ml
Text: In addition to its therapeutic aspects, the present invention also relates to a diagnostic method for detecting the presence of antibody-activated fibroblasts in the patient. Applicants believe that several auto immune diseases or disorders are associated with antibody-activated fibroblasts. […] Altered levels of these chemoattractants can be detected in various biological samples in mammals, preferably humans. Levels of IL-16 and/or RANTES may be monitored in a patient, using standard techniques, as an indication of the deleterious aspects of the disease condition. Biological samples, including but not limited to serum, vitreous humor, aqueous humor, synovial fluid, and tissue, will be drawn from the patient using standard techniques. Particularly preferred are serum samples. The measurement of the IL-16 and RANTES levels may be monitored using any method possible to detect the levels of these proteins in biological samples. A preferred method of analysis is by ELISA as described in Sciaky, D. et al., J. Immunol. 164(7):3806-14, 2000. An ELISA specific for IL-16 can be used to assess the levels released by fibroblasts as described previously in Lim, K. G. et al., J. Immunol. 156(7): 2566-70, 1996. An ELISA specific for RANTES can be used according to the manufacturer's specification (BioSource Intl., Camarillo, Calif.).
The levels of IL-16 and RANTES were then assessed with specific ELISAs. The ELISA assay for IL-16 is performed essentially as discussed in Sciaky D., Brazer, W., Center, D. M., Cruikshank, W. W. and Smith, T. J.: Cultured human fibroblasts express constitutive IL-16 mRNA: Cytokine induction of active IL-16 protein synthesis through a caspase-3-dependent mechanism. J. Immunol. 164(7):3806-14, 2000). An ELISA (BioSource) for RANTES was performed according to the manufacturer's instructions.

[1] = tested on: fibroblasts from individuals without known thyroid disease; experiment: T lymphocyte migration (chemotaxis) assay of conditioned medium from treated fibroblasts, normal donors; assay type: cell-based, human; conditions: IgG 100 ng/ml, IL-1β 10 ng/ml, 24 hours
Description: The general migration assay is described in detail in Sciaky, D., et al., “Cultured human fibroblasts express constitutive IL-16 mRNA: Cytokine induction of active IL-16 protein synthesis through a caspase-3-dependent mechanism,” J. Immunol. 164(7):3806-14 (2000), hereby incorporated fully by reference. Briefly, fibroblasts from TAO and normal orbital tissue were seeded in 24-well arrays and grown to confluence. Monolayers were shifted containing 1% FBS to which nothing, purified normal or TAO IgG was added for various time intervals. Medium was collected and stored until use at −80° C. Chemotaxis was examined using Boyden chambers to which NWNA-T lymphocytes were added as the cellular targets. 50 μl cell suspension (10^7 cells/ml) were placed in the upper compartments of 48-well micro-chemotaxis chambers separated from 32 μl of serum samples by 8 μm micropore nitrocellulose filters (Neuroprobe). These were incubated at 37° C. in 5% CO2 environment for 3 hr. Filters were fixed, stained with hematoxylin, dehydrated, mounted on glass slides and viewed by light microscopy. Lymphocyte migration was quantified by counting the total number of cells migrating beyond a fixed depth. This depth was set to routinely identify a baseline migration under control conditions of 10-15 cells per high power field. Five such fields were counted in duplicate for each sample and the means±SD were calculated and expressed as percentage values of baseline cell migration in control buffer alone (100%). For each set of experimental conditions, at least three separate determinations were performed. Differences between experimental groups were analyzed by the Student t test using absolute values obtained for lymphocyte migration and statistical difference was accepted at the 95% level of confidence.
To assess specificity for IL-16, experiments were conducted by incubating samples of culture media for 15 min with neutralizing concentrations of anti-IL-16 MAB (clone 14. 1, 10 μg/ml), which blocks the chemotactic activity of 50 ng/ml of rIL-16. Anti-RANTES MAB (5 μg/ml) having an ND50 of 200 ng/ml rRANTES was used to neutralize RANTES as described in Sciaky D., Brazer, W., Center, D. M., Cruikshank, W. W. and Smith, T. J.: Cultured human fibroblasts express constitutive IL-16 mRNA: Cytokine induction of active IL-16 protein synthesis through a caspase-3-dependent mechanism. J. Immunol. 164(7):3806-14, 2000).
Referring to FIGS. 3A-3C, serum concentrations of IL-16 are elevated in patients with active TAO. Moreover, both IL-16 and PGHS-2 protein can be detected in TAO orbital tissue. The concentration of IL-16 is determined in sera from either patients with Graves' disease or normal controls. The sera are subjected to an ELISA assay, which utilizes an anti-IL-16 specific antibody. IL-16 is detected by standard immunohistochemical techniques in thin sections harvested from affected orbital connective tissues from a patient with severe Graves' ophthalmopathy. In a separate measurement of IL-16 dependent T-cell migration, a panel of 11 different fibroblast strains from patients with Graves' disease and 5 from individuals without known thyroid disease were challenged with Graves' IgG (100 ng/ml), normal IgG (100 ng/ml) or IL-1β (10 ng/ml) for 24 hours and assessed for T cell migration activity and IL-16 production (Table II). Graves' IgG induced IL-16 dependent cell migration in 10 of the Graves' fibroblast strains which derived from orbit and skin from various anatomic regions. Included were strains from the pretibial skin as well as the abdominal wall and the neck. The latter two sites rarely manifest Graves' disease. A substantial fraction of Graves' IgG provoked T cell migration activity in most of these strains was resistant to neutralization with anti-IL-16. Similarly, chemoattractants produced by RA fibroblasts can be measured by T-cell migration. […]

IL-1β: pro-inflammatory cytokine used to activate fibroblasts
RANTES (RANTES; strain 1, Orbit): 84 ± 8 pg/mL
RANTES (RANTES; strain 2, Orbit): 116 ± 11 pg/mL
RANTES (RANTES; strain 3, Abdominal skin): 116 ± 11 pg/mL
RANTES (RANTES; strain 4, Orbit): 128 ± 26 pg/mL
RANTES (RANTES; strain 6, Neck skin): 253 ± 42 pg/mL
RANTES (RANTES; strain 7, Pretibial skin): 128 ± 26 pg/mL
RANTES (RANTES; strain 9, Orbit): 78 ± 21 pg/mL
RANTES (RANTES; strain 10, Orbit): 214 ± 30 pg/mL
RANTES (RANTES; strain 11, Orbit): 69 ± 6 pg/mL
T Cell Migration (% control) ([1]; strain 12, Orbit): 168 +/− 11 % control
T Cell Migration +anti-IL-16 ([1]; strain 12, Orbit): 143 +/− 9 % control
T Cell Migration +anti-RANTES ([1]; strain 12, Orbit): 156 +/− 9 % control
T Cell Migration (% control) ([1]; strain 14, Orbit): 189 +/− 10 % control
T Cell Migration +anti-IL-16 ([1]; strain 14, Orbit): 154 +/− 8 % control
T Cell Migration +anti-RANTES ([1]; strain 14, Orbit): 159 +/− 9 % control
T Cell Migration (% control) ([1]; strain 15, Extremity Skin): 197 ± 10 % control
T Cell Migration +anti-IL-16 ([1]; strain 15, Extremity Skin): 153 ± 9 % control
T Cell Migration +anti-RANTES ([1]; strain 15, Extremity Skin): 172 ± 9 % control
T Cell Migration (% control) ([1]; strain 16, Extremity Skin): 201 ± 7 % control
T Cell Migration +anti-IL-16 ([1]; strain 16, Extremity Skin): 155 ± 8 % control
T Cell Migration +anti-RANTES ([1]; strain 16, Extremity Skin): 173 ± 7 % control
